# Experimental data as given in paper PMC6273209, “Evaluation of the Enantiomer Specific Biokinetics and Radiation Doses of [^18F]Fluspidine—A New Tracer in Clinical Translation for Imaging of σ1 Receptors” (Molecules, 2016).
# pKi: −log10 of the molar value. Where “and” joins values, the source holds several entries; their conditions need not be identical. Equal values may be shown once.
# Tests used:
# [1] = Human dosimetry estimation from small animal PET/MRI (imaging method); assay type: in vivo, CD-1 mice; conditions: for OD Adrenals / OD Brain / OD Breasts / OD Gallbladder Wall / OD Heart Wall / OD Kidneys / OD LLI Wall / OD Liver / OD Lungs / OD Muscle / OD Osteogenic Cells / OD Ovaries / OD Pancreas / OD Red Marrow / OD Skin / OD Small Intestine / OD Spleen / OD Stomach Wall / OD Testes / OD Thymus / OD Thyroid / OD Total Body / OD ULI Wall / OD Urinary Bladder Wall / OD Uterus / ED Contr. Adrenals / ED Contr. Brain / ED Contr. Breasts / ED Contr. Gallbladder Wall / ED Contr. Heart Wall / ED Contr. Kidneys / ED Contr. LLI Wall / ED Contr. Liver / ED Contr. Lungs / ED Contr. Muscle / ED Contr. Osteogenic Cells / ED Contr. Ovaries / ED Contr. Pancreas / ED Contr. Red Marrow / ED Contr. Skin / ED Contr. Small Intestine / ED Contr. Spleen / ED Contr. Stomach Wall / ED Contr. Testes / ED Contr. Thymus / ED Contr. Thyroid / ED Contr. Total Body / ED Contr. ULI Wall / ED Contr. Urinary Bladder Wall / ED Contr. Uterus: mouse PET/MRI; for OD Adrenals / OD Brain / OD Breasts / OD Gallbladder Wall / OD Heart Wall / OD Kidneys / OD LLI Wall / OD Liver / OD Lungs / OD Muscle / OD Osteogenic Cells / OD Ovaries / OD Pancreas / OD Red Marrow / OD Skin / OD Small Intestine / OD Spleen / OD Stomach Wall / OD Testes / OD Thymus / OD Thyroid / OD Total Body / OD ULI Wall / OD Urinary Bladder Wall / OD Uterus: scaled to human adult male model; for ED Contr. Adrenals / ED Contr. Brain / ED Contr. Breasts / ED Contr. Gallbladder Wall / ED Contr. Heart Wall / ED Contr. Kidneys / ED Contr. LLI Wall / ED Contr. Liver / ED Contr. Lungs / ED Contr. Muscle / ED Contr. Osteogenic Cells / ED Contr. Ovaries / ED Contr. Pancreas / ED Contr. Red Marrow / ED Contr. Skin / ED Contr. Small Intestine / ED Contr. Spleen / ED Contr. Stomach Wall / ED Contr. Testes / ED Contr. Thymus / ED Contr. Thyroid / ED Contr. Total Body / ED Contr. ULI Wall / ED Contr. Urinary Bladder Wall / ED Contr. Uterus / ED: ICRP 103 weighting; for ED ICRP 60 / ED: mouse, imaging (PET/MRI); for ED ICRP 60: ICRP 60 weighting
# Experimental: The animals were initially anesthetized with 4% of isoflurane and were positioned prone in a small-animal PET/MRI system (nanoScan® PET/MRI, MEDISO, Budapest, Hungary) equipped with respiratory monitoring, heated mouse bed (37 °C), and inhalation anesthesia (1.8% isoflurane in a 60% oxygen/40% air gas mixture at 250 mL/min airflow; Anaesthesia Unit U-410, agntho’s, Lidingö, Sweden; Gas blender 100 series, MCQ Instruments, Rome, Italy). Prior to the PET scan, a scout image MR sequence was done to outline the animal dimensions. Female CD-1 mice (age: 12 weeks, weight: 30.9 ± 1.3 g) were injected via the tail vein with (S)-(−)-[^18F]fluspidine (13.2 ± 3.0 MBq; n = 3) or (R)-(+)-[^18F]fluspidine (12.6 ± 1.4 MBq; n = 3) in a volume of 200 μL saline. The injected dose was calculated by the difference of the radioactivity in the syringe before and after the injection. A dynamic whole body animal PET scan of 105 min length (Figure 1) was started simultaneously. This scanning time was chosen to represent the protocol of the human study (after time extrapolation according to Equation (2)) based on a priori biokinetic information from the ex vivo investigation. Following the PET scan, a 20 min T1-weighted whole body MR scan (gradient echo sequence, TR = 20 ms; TE = 3.2 ms) was performed for anatomical orientation after co-registration and attenuation correction at the reconstruction step.
# The PET images were iteratively (ordered-subsets expectation maximization, OSEM) reconstructed (preclinical: 4 iterations, 6 subsets; clinical: 4 iterations, 8 subsets) and corrected for decay, randoms, scatter, and dead time, μ-maps for attenuation correction of PET-emission data were derived from the CT or MR [49] structural data, respectively. The PET data were re-binned into 10 time frames (preclinical: 4 × 5 min, 1 × 10 min, and 5 × 15 min; clinical: 4 × 12 min, 3 × 16 min, 1 × 32 min, 1 × 40 min, and 1 × 48 min), and the reconstructed PET/MRI and PET/CT images were co-registered manually with ROVER (ABX, advanced chemical compounds, Radeberg, Germany, version 2.1.17). Quantitative evaluation was performed by drawing volumes of interest (VOI) for brain, gallbladder, large intestine, small intestine, stomach, heart, kidneys, liver, lungs, pancreas, red marrow (backbone, pelvis, sternum), spleen, thyroid, testes, and urinary bladder (Figure S4). The PET derived biokinetic data is expressed as percentage of injected activity (dose) per cubic centimeter (%ID/cm^3).
# For human dosimetry estimation from animal biodistribution and PET/MR imaging, animal organ masses and time scale was extrapolated to human magnitudes. At first, the organ-specific animal %ID data were extrapolated to the human scale with the equation (1) %ID/organhuman=%ID/gmouse · morganhuman · mmouse/mhuman with the fraction of the injected activity in the corresponding human organ = %ID/organhuman , the fraction of injected activity per gram animal organ tissue = %ID/gmouse and morganhuman the mass of the corresponding human organ. At second, a time scale extrapolation is needed due to differences in the metabolic rate using the equation (2) thuman=tmouse{mhuman/mmouse}^0.25 including the human time scale = thuman , the animal time scale = tmouse and the ratio of animal and human body weights = mmouse/mhuman .
# The human dosimetry estimation was performed with the data extrapolated as well as the genuine human data using OLINDA/EXM software. The time-activity curves were estimated by exponential fitting and calculating the time integral, which equals the number of disintegrations (NODs) per organ during the observation period normalized to 1 Becquerel administered activity dose. […] Therefore, activity data of the urinary bladder was derived from the image for each time point. In contrast, for humans the activity concentration data of the urinary bladder was obtained in a more direct approach. […]
# σ1 receptors = target: σ1 receptors; parameters: method as in PMID 24130175; conditions: read-out: Ki (affinity towards σ1 receptors); cited from earlier work
smiles,measurement,setting,value
[18F]CC[C@H]1OC2(CCN(Cc3ccccc3)CC2)c2ccccc21 [(R)-(+)-[^18F]fluspidine],OD values of (R)-(+)-enantiomer relative to (S)-(−)-enantiomer,"[1]; mice, scaled to human",up to 1.3 fold
same,OD Adrenals,[1],11.00 μSv/MBq
same,OD Brain,[1],13.20 μSv/MBq
same,OD Breasts,[1],6.19 μSv/MBq
same,OD Gallbladder Wall,[1],30.10 μSv/MBq
same,OD Heart Wall,[1],10.50 μSv/MBq
same,OD Kidneys,[1],26.90 μSv/MBq
same,OD LLI Wall,[1],13.80 μSv/MBq
same,OD Liver,[1],26.10 μSv/MBq
same,OD Lungs,[1],10.80 μSv/MBq
same,OD Muscle,[1],7.86 μSv/MBq
same,OD Osteogenic Cells,[1],14.00 μSv/MBq
same,OD Ovaries,[1],11.90 μSv/MBq
same,OD Pancreas,[1],24.80 μSv/MBq
same,OD Red Marrow,[1],12.80 μSv/MBq
same,OD Skin,[1],5.82 μSv/MBq
same,OD Small Intestine,[1],22.60 μSv/MBq
same,OD Spleen,[1],31.80 μSv/MBq
same,OD Stomach Wall,[1],12.70 μSv/MBq
same,OD Testes,[1],7.63 μSv/MBq
same,OD Thymus,[1],7.52 μSv/MBq
same,OD Thyroid,[1],10.10 μSv/MBq
same,OD Total Body,[1],9.13 μSv/MBq
same,OD ULI Wall,[1],25.60 μSv/MBq
same,OD Urinary Bladder Wall,[1],55.70 μSv/MBq
same,OD Uterus,[1],13.00 μSv/MBq
same,ED Contr. Adrenals,[1]; scaled to human,0.09 μSv/MBq
same,ED Contr. Brain,[1]; scaled to human,0.13 μSv/MBq
same,ED Contr. Breasts,[1]; scaled to human,0.74 μSv/MBq
same,ED Contr. Gallbladder Wall,[1]; scaled to human,0.26 μSv/MBq
same,ED Contr. Heart Wall,[1]; scaled to human,0.09 μSv/MBq
same,ED Contr. Kidneys,[1]; scaled to human,0.23 μSv/MBq
same,ED Contr. LLI Wall,[1]; scaled to human,0.83 μSv/MBq
same,ED Contr. Liver,[1]; scaled to human,1.04 μSv/MBq
same,ED Contr. Lungs,[1]; scaled to human,1.30 μSv/MBq
same,ED Contr. Muscle,[1]; scaled to human,0.07 μSv/MBq
same,ED Contr. Osteogenic Cells,[1]; scaled to human,0.14 μSv/MBq
same,ED Contr. Ovaries,[1]; scaled to human,0.95 μSv/MBq
same,ED Contr. Pancreas,[1]; scaled to human,0.21 μSv/MBq
same,ED Contr. Red Marrow,[1]; scaled to human,1.53 μSv/MBq
same,ED Contr. Skin,[1]; scaled to human,0.06 μSv/MBq
same,ED Contr. Small Intestine,[1]; scaled to human,0.20 μSv/MBq
same,ED Contr. Spleen,[1]; scaled to human,0.27 μSv/MBq
same,ED Contr. Stomach Wall,[1]; scaled to human,1.52 μSv/MBq
same,ED Contr. Testes,[1]; scaled to human,0.00 μSv/MBq
same,ED Contr. Thymus,[1]; scaled to human,0.06 μSv/MBq
same,ED Contr. Thyroid,[1]; scaled to human,0.41 μSv/MBq
same,ED Contr. Total Body,[1]; scaled to human,0.00 μSv/MBq
same,ED Contr. ULI Wall,[1]; scaled to human,1.54 μSv/MBq
same,ED Contr. Urinary Bladder Wall,[1]; scaled to human,2.23 μSv/MBq
same,ED Contr. Uterus,[1]; scaled to human,0.11 μSv/MBq
same,ED ICRP 60,[1]; scaled to human,15.2 μSv/MBq
same,ED,[1]; scaled to human,14.0 μSv/MBq
same,ED,"[1]; scaled to human, listed as (R)-(+)-[^18F]Fluspidine",14.0 μSv/MBq
FCC[C@@H]1OC2(CCN(Cc3ccccc3)CC2)c2ccccc21 [(S)-(−)-[^18F]fluspidine],pKi,σ1 receptors,8.64
same,OD Adrenals,[1],10.50 μSv/MBq
same,OD Brain,[1],10.10 μSv/MBq
same,OD Breasts,[1],5.93 μSv/MBq
same,OD Gallbladder Wall,[1],25.60 μSv/MBq
same,OD Heart Wall,[1],9.85 μSv/MBq
same,OD Kidneys,[1],37.60 μSv/MBq
same,OD LLI Wall,[1],14.00 μSv/MBq
same,OD Liver,[1],25.00 μSv/MBq
same,OD Lungs,[1],10.40 μSv/MBq
same,OD Muscle,[1],7.57 μSv/MBq
same,OD Osteogenic Cells,[1],12.70 μSv/MBq
same,OD Ovaries,[1],11.50 μSv/MBq
same,OD Pancreas,[1],10.90 μSv/MBq
same,OD Red Marrow,[1],10.80 μSv/MBq
same,OD Skin,[1],5.61 μSv/MBq
same,OD Small Intestine,[1],23.10 μSv/MBq
same,OD Spleen,[1],26.10 μSv/MBq
same,OD Stomach Wall,[1],10.50 μSv/MBq
same,OD Testes,[1],7.46 μSv/MBq
same,OD Thymus,[1],7.19 μSv/MBq
same,OD Thyroid,[1],7.61 μSv/MBq
same,OD Total Body,[1],8.68 μSv/MBq
same,OD ULI Wall,[1],20.50 μSv/MBq
same,OD Urinary Bladder Wall,[1],58.00 μSv/MBq
same,OD Uterus,[1],12.80 μSv/MBq
same,ED Contr. Adrenals,[1]; scaled to human,0.09 μSv/MBq
same,ED Contr. Brain,[1]; scaled to human,0.10 μSv/MBq
same,ED Contr. Breasts,[1]; scaled to human,0.71 μSv/MBq
same,ED Contr. Gallbladder Wall,[1]; scaled to human,0.22 μSv/MBq
same,ED Contr. Heart Wall,[1]; scaled to human,0.08 μSv/MBq
same,ED Contr. Kidneys,[1]; scaled to human,0.32 μSv/MBq
same,ED Contr. LLI Wall,[1]; scaled to human,0.84 μSv/MBq
same,ED Contr. Liver,[1]; scaled to human,1.00 μSv/MBq
same,ED Contr. Lungs,[1]; scaled to human,1.25 μSv/MBq
same,ED Contr. Muscle,[1]; scaled to human,0.07 μSv/MBq
same,ED Contr. Osteogenic Cells,[1]; scaled to human,0.13 μSv/MBq
same,ED Contr. Ovaries,[1]; scaled to human,0.92 μSv/MBq
same,ED Contr. Pancreas,[1]; scaled to human,0.09 μSv/MBq
same,ED Contr. Red Marrow,[1]; scaled to human,1.30 μSv/MBq
same,ED Contr. Skin,[1]; scaled to human,0.06 μSv/MBq
same,ED Contr. Small Intestine,[1]; scaled to human,0.20 μSv/MBq
same,ED Contr. Spleen,[1]; scaled to human,0.22 μSv/MBq
same,ED Contr. Stomach Wall,[1]; scaled to human,1.26 μSv/MBq
same,ED Contr. Testes,[1]; scaled to human,0.00 μSv/MBq
same,ED Contr. Thymus,[1]; scaled to human,0.06 μSv/MBq
same,ED Contr. Thyroid,[1]; scaled to human,0.30 μSv/MBq
same,ED Contr. Total Body,[1]; scaled to human,0.00 μSv/MBq
same,ED Contr. ULI Wall,[1]; scaled to human,1.23 μSv/MBq
same,ED Contr. Urinary Bladder Wall,[1]; scaled to human,2.32 μSv/MBq
same,ED Contr. Uterus,[1]; scaled to human,0.11 μSv/MBq
same,ED ICRP 60,[1]; scaled to human,14.8 μSv/MBq
same,ED,[1]; scaled to human,12.9 ± 0.4 μSv/MBq and 12.9 μSv/MBq
same,ED,"[1]; scaled to human, listed as (S)-(−)-[^18F]Fluspidine",12.9 μSv/MBq
